Values quoted from earlier work in Sander's compilation of Henry's law constants.
Several values for one entry are separate records, joined by “and”; a condition that tells them apart may be missing. Equal entries are not always repeated.

Assay: Henry solubility constant Hcp at 298.15 K (mol/(m3 Pa))
Settings: cited value
[1] = reference: Fogg and Sangster (2003)
[2] = reference: Petrasek et al. (1983)
[3] = reference: Barcelo and Hennion (1997)
[4] = reference: Burkholder et al. (2015)
[5] = reference: Burkholder et al. (2019)
[6] = reference: Sander et al. (2006)
[7] = reference: Sander et al. (2011)

## N#CCc1ccccc1 [benzeneacetonitrile]
reference: Brockbank (2013)
  Henry solubility constant Hcp: 1.1

## O=C(O)c1ccccc1 [benzenecarboxylic acid]
reference: Goldstein (1982)
  Henry solubility constant Hcp: 140
reference: Howard (1989)
  Henry solubility constant Hcp: 140

## N#Cc1ccccc1 [benzenenitrile]
reference: Brockbank (2013)
  Henry solubility constant Hcp: 0.35

## Nc1ccc(-c2ccc(N)cc2)cc1 [benzidine]
reference: Mackay et al. (1995)
  Henry solubility constant Hcp: 25

## c1ccc2c(c1)cc1ccc3cccc4ccc2c1c34 [benzo[a]pyrene]
reference: Brockbank (2013)
  Henry solubility constant Hcp: 4.5
reference: Goldstein (1982)
  Henry solubility constant Hcp: 0.0016

## c1ccc2c(c1)-c1cccc3c1c-2cc1ccccc13 [benzo[b]fluoranthene]
reference: Brockbank (2013)
  Henry solubility constant Hcp: 15

## c1ccc2ncccc2c1 [benzo[b]pyridine]
reference: Goldstein (1982)
  Henry solubility constant Hcp: 37

## c1cc2ccc3ccc4ccc5cccc6c(c1)c2c3c4c56 [benzo[ghi]perylene]
reference: Mackay et al. (1992b)
  Henry solubility constant Hcp: 13

## c1ccc2c(c1)-c1cccc3cccc-2c13 [benzo[jk]fluorene]
reference: Brockbank (2013)
  Henry solubility constant Hcp: 0.7
[1]
  Henry solubility constant Hcp: 0.54
[2]
  Henry solubility constant Hcp: 0.99

## c1ccc2cc3c(cc2c1)-c1cccc2cccc-3c12 [benzo[k]fluoranthene]
reference: Goldstein (1982)
  Henry solubility constant Hcp: 0.0096

## O=COCc1ccccc1 [benzyl methanoate]
reference: Brockbank (2013)
  Henry solubility constant Hcp: 2

## COc1ccc(-c2ccccc2)cc1NNC(=O)OC(C)C [bifenazate]
reference: MacBean (2012b)
  Henry solubility constant Hcp: 1000

## c1ccc(-c2ccccc2)cc1 [biphenyl]
reference: Brockbank (2013)
  Henry solubility constant Hcp: 0.036

## CCCCC(CC)COC(=O)c1ccccc1C(=O)OCC(CC)CCCC (stereo unspecified) [bis(2-ethylhexyl)-phthalate]
[2]
  Henry solubility constant Hcp: 82

## ClCCOCOCCCl [bis-(2-chloroethoxy)-methane]
reference: Goldstein (1982)
  Henry solubility constant Hcp: 8.8 and 26

## CC(CCl)OC(C)CCl (stereo unspecified) [bis-(2-chloroisopropyl) ether]
reference: Goldstein (1982)
  Henry solubility constant Hcp: 0.065 and 0.064

## O=C(Nc1ccccc1-c1ccc(Cl)cc1)c1cccnc1Cl [boscalid]
reference: MacBean (2012b)
  Henry solubility constant Hcp: 19000

## CCC(C)n1c(=O)[nH]c(C)c(Br)c1=O (stereo unspecified) [bromacil]
[3]
  Henry solubility constant Hcp: 5.2

## ClBr [bromine chloride]
[4]
  Henry solubility constant Hcp: 0.0097
[5]
  Henry solubility constant Hcp: 0.0097
[6]
  Henry solubility constant Hcp: 0.0097
[7]
  Henry solubility constant Hcp: 0.0097

## Brc1ccccc1 [bromobenzene]
reference: Brockbank (2013)
  Henry solubility constant Hcp: 0.0043
[1]
  Henry solubility constant Hcp: 0.005
reference: HSDB (2015)
  Henry solubility constant Hcp: 0.0047

## CCBr [bromoethane]
reference: Brockbank (2013)
  Henry solubility constant Hcp: 0.0013
[5]
  Henry solubility constant Hcp: 0.0013

## O=C(O)CBr [bromoethanoic acid]
[4]
  Henry solubility constant Hcp: 1500
[5]
  Henry solubility constant Hcp: 1500
[7]
  Henry solubility constant Hcp: 1500

## CBr [bromomethane]
reference: Brockbank (2013)
  Henry solubility constant Hcp: 0.0015
[4]
  Henry solubility constant Hcp: 0.0017
[5]
  Henry solubility constant Hcp: 0.0015
reference: Goldstein (1982)
  Henry solubility constant Hcp: 4.4e-05
[6]
  Henry solubility constant Hcp: 0.0017
[7]
  Henry solubility constant Hcp: 0.0017

## CCCC=O [butanal]
reference: Brockbank (2013)
  Henry solubility constant Hcp: 0.091
[4]
  Henry solubility constant Hcp: 0.095
[5]
  Henry solubility constant Hcp: 0.095
[6]
  Henry solubility constant Hcp: 0.095
[7]
  Henry solubility constant Hcp: 0.095

## CCCC [butane]
[4]
  Henry solubility constant Hcp: 1.2e-05
[5]
  Henry solubility constant Hcp: 1.2e-05
reference: Deno and Berkheimer (1960)
  Henry solubility constant Hcp: 1.1e-05
reference: Hayduk (1986)
  Henry solubility constant Hcp: 1.2e-05
[6]
  Henry solubility constant Hcp: 1.2e-05
[7]
  Henry solubility constant Hcp: 1.2e-05

## CCCCOC(=O)CCC [butyl butanoate]
reference: Brockbank (2013)
  Henry solubility constant Hcp: 0.017

## CCCCOC(C)=O [butyl ethanoate]
reference: Brockbank (2013)
  Henry solubility constant Hcp: 0.038
reference: Goldstein (1982)
  Henry solubility constant Hcp: 0.021

## CCCCOC=O [butyl methanoate]
reference: Brockbank (2013)
  Henry solubility constant Hcp: 0.026

## CCCCOC(=O)CC [butyl propanoate]
reference: Brockbank (2013)
  Henry solubility constant Hcp: 0.022

## CCSC(=O)N(CC(C)C)CC(C)C [butylate]
[3]
  Henry solubility constant Hcp: 0.018

## CCCCc1ccccc1 [butylbenzene]
reference: Brockbank (2013)
  Henry solubility constant Hcp: 0.00071

## O=C1C2CC=CCC2C(=O)N1SC(Cl)(Cl)Cl (stereo unspecified) [captan]
[3]
  Henry solubility constant Hcp: 0.016

## c1ccc2c(c1)[nH]c1ccccc12 [carbazole]
reference: Brockbank (2013)
  Henry solubility constant Hcp: 94

## CCNC(=O)[C@@H](C)OC(=O)Nc1ccccc1 [carbetamide]
[3]
  Henry solubility constant Hcp: 1.1

## CNC(=O)Oc1cccc2c1OC(C)(C)C2 [carbofuran]
[3]
  Henry solubility constant Hcp: 19

## S=C=S [carbon disulfide]
[4]
  Henry solubility constant Hcp: 0.00061
[5]
  Henry solubility constant Hcp: 0.00061
reference: Goldstein (1982)
  Henry solubility constant Hcp: 0.00075
[6]
  Henry solubility constant Hcp: 0.00061
[7]
  Henry solubility constant Hcp: 0.00061

## [C-]#[O+] [carbon monoxide]
[4]
  Henry solubility constant Hcp: 9.7e-06
[5]
  Henry solubility constant Hcp: 9.7e-06
[6]
  Henry solubility constant Hcp: 9.7e-06
[7]
  Henry solubility constant Hcp: 9.7e-06
